Measurements published in article PMC4076210, “Discovery of Novel AKT Inhibitors with Enhanced Anti-Tumor Effects in Combination with the MEK Inhibitor” (PLoS ONE, 2014).
Read-outs that look alike come from different tables or passages of the source.

Experiments:
Test in all cases: Kinase panel
Assay type in all cases: biochemical
CaMKIIδ(h) = target: T1, CaMKIIδ(h) (Homo sapiens, UniProt Q13557)
T1 construct: purchased Millipore KinaseProfiler

CaMKIδ(h) = target: T2, CaMKIδ(h) (Homo sapiens, UniProt Q8IU85)
T2 construct: purchased Millipore KinaseProfiler

EphB4(h) = target: T3, EphB4(h) (Homo sapiens, UniProt P54760)
T3 construct: purchased Millipore KinaseProfiler
T3 sequence (P54760 16-987): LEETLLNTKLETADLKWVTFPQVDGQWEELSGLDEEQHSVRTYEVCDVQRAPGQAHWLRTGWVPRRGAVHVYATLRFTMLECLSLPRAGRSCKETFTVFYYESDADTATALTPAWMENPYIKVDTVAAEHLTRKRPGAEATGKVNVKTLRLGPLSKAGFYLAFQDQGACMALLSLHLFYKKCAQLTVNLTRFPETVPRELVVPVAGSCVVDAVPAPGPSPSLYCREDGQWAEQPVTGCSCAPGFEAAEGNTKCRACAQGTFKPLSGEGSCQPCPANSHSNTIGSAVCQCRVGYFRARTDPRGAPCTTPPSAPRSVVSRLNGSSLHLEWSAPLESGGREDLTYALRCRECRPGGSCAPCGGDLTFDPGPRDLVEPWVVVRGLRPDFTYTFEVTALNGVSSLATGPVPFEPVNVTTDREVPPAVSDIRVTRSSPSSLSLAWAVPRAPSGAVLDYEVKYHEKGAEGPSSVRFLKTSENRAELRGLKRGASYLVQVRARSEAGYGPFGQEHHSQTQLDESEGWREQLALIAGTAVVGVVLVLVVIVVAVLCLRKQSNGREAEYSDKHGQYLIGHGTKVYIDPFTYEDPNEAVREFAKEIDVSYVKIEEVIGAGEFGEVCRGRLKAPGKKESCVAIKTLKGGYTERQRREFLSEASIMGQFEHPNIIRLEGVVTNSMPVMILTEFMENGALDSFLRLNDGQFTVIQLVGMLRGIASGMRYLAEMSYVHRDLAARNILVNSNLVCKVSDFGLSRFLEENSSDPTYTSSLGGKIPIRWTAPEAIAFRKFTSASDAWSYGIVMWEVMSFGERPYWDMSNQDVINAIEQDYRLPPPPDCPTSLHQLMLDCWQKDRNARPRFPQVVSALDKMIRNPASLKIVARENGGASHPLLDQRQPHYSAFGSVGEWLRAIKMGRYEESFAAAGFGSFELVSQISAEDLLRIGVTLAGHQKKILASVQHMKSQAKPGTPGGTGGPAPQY

JAK2(h) = target: T4, JAK2(h) (Homo sapiens, UniProt O60674)
T4 construct: purchased Millipore KinaseProfiler

JNK1α1(h) = target: T5, JNK1α1(h) (Homo sapiens, UniProt P45983)
T5 construct: purchased Millipore KinaseProfiler

MAPK2(h) = target: T6, MAPK2(h) (Homo sapiens, UniProt P28482)
T6 construct: purchased Millipore KinaseProfiler

MSSK1(h) = target: T7, MSSK1(h) (Homo sapiens, UniProt Q9UPE1)
T7 construct: purchased Millipore KinaseProfiler

Rse(h) = target: T8, Rse(h) (Homo sapiens, UniProt Q06418)
T8 construct: purchased Millipore KinaseProfiler
T8 sequence (Q06418 41-890): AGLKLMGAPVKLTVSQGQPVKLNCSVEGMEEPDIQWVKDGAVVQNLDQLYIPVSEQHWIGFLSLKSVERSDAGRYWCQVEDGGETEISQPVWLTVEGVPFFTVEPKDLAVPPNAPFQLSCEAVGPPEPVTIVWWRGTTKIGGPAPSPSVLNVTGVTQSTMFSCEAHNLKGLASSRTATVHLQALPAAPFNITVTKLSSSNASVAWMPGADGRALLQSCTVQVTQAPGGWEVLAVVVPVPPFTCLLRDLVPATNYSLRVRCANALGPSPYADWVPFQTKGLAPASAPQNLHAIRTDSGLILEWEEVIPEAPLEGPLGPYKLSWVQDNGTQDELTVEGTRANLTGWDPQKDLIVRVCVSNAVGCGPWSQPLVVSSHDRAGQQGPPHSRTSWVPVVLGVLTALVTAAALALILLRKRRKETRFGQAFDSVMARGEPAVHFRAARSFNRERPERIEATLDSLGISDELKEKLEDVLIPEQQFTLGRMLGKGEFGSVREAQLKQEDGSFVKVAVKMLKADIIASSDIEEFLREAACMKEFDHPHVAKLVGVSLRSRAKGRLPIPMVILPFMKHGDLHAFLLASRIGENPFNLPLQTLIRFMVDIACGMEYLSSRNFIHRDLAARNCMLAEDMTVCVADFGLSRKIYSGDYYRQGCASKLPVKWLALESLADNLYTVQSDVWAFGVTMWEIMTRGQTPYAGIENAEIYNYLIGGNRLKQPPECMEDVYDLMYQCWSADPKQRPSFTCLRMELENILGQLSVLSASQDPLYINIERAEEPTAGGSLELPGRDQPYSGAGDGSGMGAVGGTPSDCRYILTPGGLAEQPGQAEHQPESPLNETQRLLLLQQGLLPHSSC

SAPK3(h) = target: T9, SAPK3(h) (Homo sapiens, UniProt P53778)
T9 construct: purchased Millipore KinaseProfiler
T9 sequence (P53778 1-367): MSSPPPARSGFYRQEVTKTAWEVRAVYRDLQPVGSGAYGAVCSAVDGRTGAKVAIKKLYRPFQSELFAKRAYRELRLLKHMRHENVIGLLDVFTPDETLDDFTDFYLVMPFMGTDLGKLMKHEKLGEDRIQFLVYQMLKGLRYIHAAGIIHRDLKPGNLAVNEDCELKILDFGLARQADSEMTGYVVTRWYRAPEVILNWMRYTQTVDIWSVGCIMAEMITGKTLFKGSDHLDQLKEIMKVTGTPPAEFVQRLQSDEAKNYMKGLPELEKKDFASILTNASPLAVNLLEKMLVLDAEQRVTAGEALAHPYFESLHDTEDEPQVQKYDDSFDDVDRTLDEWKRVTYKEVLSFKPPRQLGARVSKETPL

T5 sequence (P45983 1-384 isoform P45983-2): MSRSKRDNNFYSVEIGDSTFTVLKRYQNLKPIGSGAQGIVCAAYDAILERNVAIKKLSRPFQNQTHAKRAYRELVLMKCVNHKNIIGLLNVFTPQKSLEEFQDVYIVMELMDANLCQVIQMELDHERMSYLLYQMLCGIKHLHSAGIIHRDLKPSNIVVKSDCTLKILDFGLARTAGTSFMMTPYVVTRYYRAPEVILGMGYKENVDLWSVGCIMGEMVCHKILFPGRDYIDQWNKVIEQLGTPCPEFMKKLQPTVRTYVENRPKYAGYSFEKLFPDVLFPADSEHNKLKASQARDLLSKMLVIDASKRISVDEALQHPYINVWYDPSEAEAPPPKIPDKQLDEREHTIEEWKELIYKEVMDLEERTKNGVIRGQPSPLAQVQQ
T6 sequence (P28482 whole entry): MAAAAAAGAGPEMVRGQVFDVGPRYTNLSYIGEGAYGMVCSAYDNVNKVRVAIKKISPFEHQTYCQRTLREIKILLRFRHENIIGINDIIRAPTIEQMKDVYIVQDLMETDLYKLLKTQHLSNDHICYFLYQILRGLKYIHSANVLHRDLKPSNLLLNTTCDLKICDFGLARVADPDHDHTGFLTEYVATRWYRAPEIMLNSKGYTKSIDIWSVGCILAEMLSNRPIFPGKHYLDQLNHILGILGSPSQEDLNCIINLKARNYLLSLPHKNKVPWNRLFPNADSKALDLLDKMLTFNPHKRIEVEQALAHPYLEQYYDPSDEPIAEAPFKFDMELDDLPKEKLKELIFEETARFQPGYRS
T4 sequence (O60674 whole entry): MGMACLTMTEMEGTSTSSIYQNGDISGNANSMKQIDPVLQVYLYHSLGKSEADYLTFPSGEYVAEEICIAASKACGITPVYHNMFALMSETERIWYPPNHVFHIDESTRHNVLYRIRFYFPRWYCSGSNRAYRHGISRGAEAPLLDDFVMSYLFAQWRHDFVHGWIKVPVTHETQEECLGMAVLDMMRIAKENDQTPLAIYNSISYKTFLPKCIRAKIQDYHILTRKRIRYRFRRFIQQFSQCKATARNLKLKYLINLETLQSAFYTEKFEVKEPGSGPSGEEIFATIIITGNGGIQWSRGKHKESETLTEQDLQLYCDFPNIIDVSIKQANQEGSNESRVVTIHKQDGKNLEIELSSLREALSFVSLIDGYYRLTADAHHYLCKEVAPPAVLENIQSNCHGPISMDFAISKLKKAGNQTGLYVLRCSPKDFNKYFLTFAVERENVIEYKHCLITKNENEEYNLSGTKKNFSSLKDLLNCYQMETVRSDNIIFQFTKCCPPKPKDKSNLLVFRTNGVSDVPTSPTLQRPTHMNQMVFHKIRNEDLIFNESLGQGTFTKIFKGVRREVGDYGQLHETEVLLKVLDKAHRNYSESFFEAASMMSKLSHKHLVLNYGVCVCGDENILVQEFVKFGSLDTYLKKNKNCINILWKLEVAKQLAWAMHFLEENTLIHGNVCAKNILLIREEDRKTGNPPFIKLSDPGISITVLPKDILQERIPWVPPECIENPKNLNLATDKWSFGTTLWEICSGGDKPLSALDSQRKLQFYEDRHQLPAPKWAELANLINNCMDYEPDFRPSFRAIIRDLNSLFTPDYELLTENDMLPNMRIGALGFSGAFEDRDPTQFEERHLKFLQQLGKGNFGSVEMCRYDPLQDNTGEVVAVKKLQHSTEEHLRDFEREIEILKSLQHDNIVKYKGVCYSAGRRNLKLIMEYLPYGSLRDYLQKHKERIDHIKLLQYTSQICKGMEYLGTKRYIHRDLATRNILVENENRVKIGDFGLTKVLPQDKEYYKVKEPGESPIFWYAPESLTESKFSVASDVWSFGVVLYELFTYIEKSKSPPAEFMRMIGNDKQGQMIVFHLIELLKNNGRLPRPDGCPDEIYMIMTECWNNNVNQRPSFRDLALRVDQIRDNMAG
T1 sequence (Q13557 whole entry): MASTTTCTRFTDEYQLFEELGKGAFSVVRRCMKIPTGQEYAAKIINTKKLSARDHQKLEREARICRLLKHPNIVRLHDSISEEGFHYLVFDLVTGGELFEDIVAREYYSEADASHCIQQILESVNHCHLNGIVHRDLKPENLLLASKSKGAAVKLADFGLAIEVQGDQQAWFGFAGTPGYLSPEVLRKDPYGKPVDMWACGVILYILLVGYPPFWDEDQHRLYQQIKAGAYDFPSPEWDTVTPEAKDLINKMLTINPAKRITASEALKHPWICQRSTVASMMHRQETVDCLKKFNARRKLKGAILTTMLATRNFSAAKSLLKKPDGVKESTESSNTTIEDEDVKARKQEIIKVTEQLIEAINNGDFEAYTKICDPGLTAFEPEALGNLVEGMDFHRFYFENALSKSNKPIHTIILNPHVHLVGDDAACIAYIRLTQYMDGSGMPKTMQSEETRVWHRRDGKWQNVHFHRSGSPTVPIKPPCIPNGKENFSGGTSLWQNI
T7 sequence (Q9UPE1 whole entry): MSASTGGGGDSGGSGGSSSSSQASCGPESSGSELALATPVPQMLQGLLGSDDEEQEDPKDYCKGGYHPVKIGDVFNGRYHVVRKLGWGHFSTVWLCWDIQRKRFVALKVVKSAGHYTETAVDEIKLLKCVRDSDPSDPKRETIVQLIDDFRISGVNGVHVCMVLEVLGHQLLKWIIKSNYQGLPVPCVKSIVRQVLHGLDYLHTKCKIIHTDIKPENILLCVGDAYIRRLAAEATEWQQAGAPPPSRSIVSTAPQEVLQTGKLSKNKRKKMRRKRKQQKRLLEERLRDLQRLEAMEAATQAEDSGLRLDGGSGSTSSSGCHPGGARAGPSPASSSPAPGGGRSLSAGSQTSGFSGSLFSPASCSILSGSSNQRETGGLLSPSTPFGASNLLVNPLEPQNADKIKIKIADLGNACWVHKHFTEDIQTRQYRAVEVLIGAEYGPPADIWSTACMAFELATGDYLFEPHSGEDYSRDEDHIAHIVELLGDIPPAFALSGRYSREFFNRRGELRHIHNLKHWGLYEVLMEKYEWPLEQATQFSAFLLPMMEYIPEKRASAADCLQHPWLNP
T2 sequence (Q8IU85 whole entry): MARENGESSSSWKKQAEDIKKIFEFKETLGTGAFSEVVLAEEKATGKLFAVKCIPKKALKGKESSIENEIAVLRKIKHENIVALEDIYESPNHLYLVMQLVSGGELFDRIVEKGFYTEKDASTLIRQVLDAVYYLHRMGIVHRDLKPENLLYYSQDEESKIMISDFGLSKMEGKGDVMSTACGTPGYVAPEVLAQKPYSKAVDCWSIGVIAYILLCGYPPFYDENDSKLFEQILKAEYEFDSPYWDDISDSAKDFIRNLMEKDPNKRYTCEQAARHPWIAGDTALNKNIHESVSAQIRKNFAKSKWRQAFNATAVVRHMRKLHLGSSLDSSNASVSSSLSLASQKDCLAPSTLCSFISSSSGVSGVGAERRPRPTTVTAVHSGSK

Q: Which results are given for `Cn1ncc(Cl)c1-c1cc(C(=O)N[C@H](CN)Cc2ccc(F)c(F)c2)oc1Cl` [GSK2141795]?
A: inhibition at 0.5 µM (CaMKIIδ(h); 0.5 µM, read-out: % Inhibition): 53%; inhibition at 10 µM (CaMKIIδ(h); 10 µM, read-out: % Inhibition): 94%; inhibition at 0.5 µM (CaMKIδ(h); 0.5 µM, read-out: % Inhibition): 16%; inhibition at 10 µM (CaMKIδ(h); 10 µM, read-out: % Inhibition): 84%; inhibition at 0.5 µM (EphB4(h); 0.5 µM, read-out: % Inhibition): 5%; inhibition at 10 µM (EphB4(h); 10 µM, read-out: % Inhibition): 5%; inhibition at 0.5 µM (JAK2(h); 0.5 µM, read-out: % Inhibition): -13%; inhibition at 10 µM (JAK2(h); 10 µM, read-out: % Inhibition): -27%; inhibition at 0.5 µM (JNK1α1(h); 0.5 µM, read-out: % Inhibition): -9%; inhibition at 10 µM (JNK1α1(h); 10 µM, read-out: % Inhibition): -5%; inhibition at 0.5 µM (MAPK2(h); 0.5 µM, read-out: % Inhibition): 11%; inhibition at 10 µM (MAPK2(h); 10 µM, read-out: % Inhibition): 49%; inhibition at 0.5 µM (MSSK1(h); 0.5 µM, read-out: % Inhibition): -6%; inhibition at 10 µM (MSSK1(h); 10 µM, read-out: % Inhibition): 10%; inhibition at 0.5 µM (Rse(h); 0.5 µM, read-out: % Inhibition): 2%; inhibition at 10 µM (Rse(h); 10 µM, read-out: % Inhibition): 33%; inhibition at 0.5 µM (SAPK3(h); 0.5 µM, read-out: % Inhibition): -14%; inhibition at 10 µM (SAPK3(h); 10 µM, read-out: % Inhibition): 14%

Q: With `Cn1ncc(Cl)c1-c1cc(C(=O)N[C@H](CN)Cc2cccc(F)c2)sc1Cl` [GSK2110183] as the compound, how does the inhibition at 0.5 µM (CaMKIIδ(h)) read?
A: -20%

Q: What about the inhibition at 10 µM (CaMKIIδ(h)) of the same compound?
A: 12%

Q: What about the inhibition at 0.5 µM (CaMKIδ(h)) of the same compound?
A: 18%

Q: What about the inhibition at 10 µM (CaMKIδ(h)) of the same compound?
A: 78%

Q: And the inhibition at 0.5 µM (EphB4(h))?
A: 0%

Q: And the inhibition at 10 µM (EphB4(h))?
A: 10%

Q: And the inhibition at 0.5 µM (JAK2(h))?
A: -31%

Q: What about the inhibition at 10 µM (JAK2(h)) of the same compound?
A: -55%

Q: What about the inhibition at 0.5 µM (JNK1α1(h)) of the same compound?
A: -2%

Q: What about the inhibition at 10 µM (JNK1α1(h)) of the same compound?
A: 13%

Q: What about the inhibition at 0.5 µM (MAPK2(h)) of the same compound?
A: -2%

Q: And the inhibition at 10 µM (MAPK2(h))?
A: 17%

Q: And the inhibition at 0.5 µM (MSSK1(h))?
A: -1%

Q: What about the inhibition at 10 µM (MSSK1(h)) of the same compound?
A: 12%

Q: And the inhibition at 0.5 µM (Rse(h))?
A: 6%

Q: And the inhibition at 10 µM (Rse(h))?
A: 51%

Q: What about the inhibition at 0.5 µM (SAPK3(h)) of the same compound?
A: -6%

Q: And the inhibition at 10 µM (SAPK3(h))?
A: 20%
